# According to PubChem BioAssay (NCI):
#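 How tested: cells in 96-well plates exposed to compound for 48 hours at five concentrations. GI50 = concentration required for 50% inhibition of growth. TGI marks complete inhibition of growth.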
# Experiments:
# Assay in all cases: NCI anticancer screen, dose series, 48 h
# [1] = system: SW-620 colon
# [2] = system: HOP-62 NSCLC
# [3] = system: T-47D breast
# [4] = system: NCI-H226 lung
# [5] = system: SNB-75 CNS
# [6] = system: CCRF-CEM leukemia
# [7] = system: TK-10 renal
# [8] = system: SK-MEL-28 melanoma
# [9] = system: NCI/ADR-RES ovarian
# [10] = system: UACC-257 melanoma
# [11] = system: SK-OV-3 ovarian
Compound,TGI [1] [µM],TGI [2] [µM],TGI [3] [µM],TGI [4] [µM],TGI [5] [µM],TGI [6] [µM],TGI [7] [µM],TGI [8] [µM],TGI [9] [µM],TGI [10] [µM],TGI [11] [µM],GI50 [1] [µM],GI50 [2] [µM],GI50 [11] [µM],GI50 [6] [µM],GI50 [7] [µM],GI50 [8] [µM],GI50 [9] [µM],GI50 [10] [µM]
O=c1[nH]nc(-c2ccc([N+](=O)[O-])cc2)[nH]1,> 100,> 100,> 100,> 100,> 100,> 100,> 100,> 100,> 100,> 100,–,–,–,–,–,–,–,–,–
CC1=CC(O)CC(C)(C)C1/C=C/C(C)=C/C=C/C(C)=C/C=C/C=C(C)/C=C/C=C(C)/C=C/C1=C(C)CC(O)CC1(C)C (stereo not drawn),34.8,–,44.7,41.4,> 100,> 100,> 100,31.4,59.8,59.1,> 100,–,–,–,–,–,–,–,–
C=CCN(c1cc(OC)c2[nH]c(C(=O)O)c(C)c2c1[N+](=O)[O-])S(C)(=O)=O,> 100,> 100,> 100,> 100,> 100,> 100,> 100,> 100,> 100,> 100,> 100,–,–,–,–,–,–,–,–
Fc1cccc(F)c1C1SCc2nc3cc(Cl)ccc3n21 (stereo not drawn),> 100,> 100,> 100,–,> 100,> 100,> 100,> 100,> 100,> 60.6,> 100,–,–,–,–,–,–,–,–
Cc1ccc2nc(Nc3ccccc3C)c(Nc3ccccc3C)nc2c1,> 100,> 100,> 100,> 89.7,> 96.6,> 80.6,> 92.7,> 100,> 100,72.3,> 100,–,–,–,–,–,–,–,–
COc1cc2c3cc1Oc1cc(ccc1O)C[C@@H]1c4c(cc(OC)c(O)c4Oc4ccc(cc4)C[C@@H]3[N+](C)(C)CC2)CC[N+]1(C)C,> 100,> 100,71.2,> 100,–,–,> 100,> 100,> 100,> 100,–,–,–,–,–,–,–,–,–
Nc1cc2nc(-c3ccccc3)cn2cn1,> 100,> 100,> 100,> 100,> 100,> 100,> 100,> 100,> 100,–,> 100,–,–,–,–,–,–,–,–
COC(=O)[C@@H]1[C@H]2CC[C@]3(C)[C@@H](OC(C)=O)CC[C@H]3[C@@H]2CC[C@H]1C1(C)SCCS1,> 100,53.6,56.8,42.3,> 100,86.4,> 100,> 100,57.1,53.3,> 100,–,–,–,–,–,–,–,–
O=c1cccc2n1CC1CNCC2C1 (stereo not drawn),> 100,> 100,–,> 100,> 100,> 100,> 100,> 100,> 100,> 100,> 100,–,–,–,–,–,–,–,–
CCCCCc1cc(CCCC)sc1-c1ccco1,> 100,> 100,> 100,> 100,> 100,> 75,> 100,> 100,> 100,> 100,> 100,–,–,–,–,–,–,–,–
CC(=O)N=S(NC(=O)c1ccc(C)cc1)C(Cl)(Cl)Cl (stereo not drawn),36.3,> 100,> 100,> 100,> 100,51.5,> 100,> 100,49.1,> 100,> 100,–,–,–,–,–,–,–,–
CCOP(=O)(CC1OC(CO)C(O)C1O)OCC (stereo not drawn),> 100,> 100,> 100,–,> 100,> 100,> 100,> 100,–,> 100,> 100,–,–,–,–,–,–,–,–
CC(Br)CN(CC(C)Br)c1ccc2c(c1)Cc1ccccc1-2 (stereo not drawn),40.2,23.9,29.6,–,25.2,> 100,26.2,37.3,38.4,28.1,31.1,–,–,–,–,–,–,–,–
CCc1nc2c([nH]1)C(=O)c1ccccc1C2=O,> 100,> 100,–,> 100,> 100,> 100,> 100,> 100,–,78,> 100,–,–,–,–,–,–,–,–
CC1OC2OC3C(OCC(O)C3O)OC(=O)[C@]34CCC(C)(C)CC3C3=CCC5[C@@]6(C)C[C@H](O)[C@H](OC7OC(CO)C(O)C(O)C7OC7OC(COC(=O)CC(C)(O)CC(=O)OC1C(OC1OC(CO)C(O)C(O)C1O)C2O)C(O)C(O)C7O)[C@@](C)(CO)C6CC[C@@]5(C)[C@]3(C)CC4 (stereo partly drawn),11.2,3.13,12.6,22.7,6.79,14,7.92,2.58,11.7,4.24,22.4,–,–,–,–,–,–,–,–
Cc1cccc2c(N)c3cccc(C(=O)NCC[N+](C)(C)[O-])c3nc12,> 100,36.5,> 100,27.8,9.47,> 100,> 100,45.2,> 100,60.3,64.6,–,–,–,–,–,–,–,–
O/N=C/[C@H]1COC2(CCCCC2)O1,> 100,> 100,–,> 100,> 100,> 100,> 100,> 100,> 100,> 100,> 100,–,–,–,–,–,–,–,–
C/C(=C\CO)CC[C@@H]1[C@@]2(C)CCCC(C)(C)[C@@H]2CC[C@@]1(C)O,50.5,–,51.3,33.4,34.7,51.5,31.3,43.2,31.9,38,57.1,–,–,–,–,–,–,–,–
O=C(O[C@@H](/C=C/c1ccccc1)P1(=O)N(Cc2ccccc2)[C@@H]2CCCC[C@H]2N1Cc1ccccc1)c1ccccc1,> 100,> 100,3.41,9.58,–,80.9,> 100,> 100,> 100,> 100,> 100,–,–,–,–,–,–,–,–
CC1CCc2sc3[nH]c(=S)n(C)c(=O)c3c2C1 (stereo not drawn),> 100,> 100,> 100,87.9,> 100,–,> 100,> 100,> 100,> 100,> 100,–,–,–,–,–,–,–,–
CC1=NN(c2cccc(Cl)c2)C2(C1=Cc1ccc(N(C)C)cc1)C(Cl)C(=O)N2c1nc2ccccc2s1 (stereo not drawn),> 100,> 100,> 100,> 100,–,> 100,> 100,> 100,> 100,> 100,> 100,–,–,–,–,–,–,–,–

Compound,TGI [1] [µM],TGI [2] [µM],TGI [3] [µM],TGI [4] [µM],TGI [5] [µM],TGI [6] [µM],TGI [7] [µM],TGI [8] [µM],TGI [9] [µM],TGI [10] [µM],TGI [11] [µM],GI50 [1] [µM],GI50 [2] [µM],GI50 [11] [µM],GI50 [6] [µM],GI50 [7] [µM],GI50 [8] [µM],GI50 [9] [µM],GI50 [10] [µM]
CSc1ncnc2c1cnn2Cc1cn(COCC(O)CO)nn1 (stereo not drawn),> 100,> 100,> 100,> 100,–,> 100,> 100,> 100,> 100,> 100,> 100,–,–,–,–,–,–,–,–
CC(=O)OC1COC(N2c3ccccc3[C@@H]3CCc4c([nH]c5ccccc45)[C@@H]32)C(OC(C)=O)C1OC(C)=O (mixture of isomers),> 100,> 100,–,–,> 100,> 100,> 100,> 100,–,> 100,> 100,–,–,–,–,–,–,–,–
O=C(/C=C/CC(O)(c1ccccc1)c1ccccc1)Nc1ccccc1Cl,> 100,> 100,–,> 100,> 100,> 100,> 100,> 100,–,> 100,> 100,–,–,–,–,–,–,–,–
COC(=O)c1ccc2cc(O)ccc2c1,> 100,> 100,> 100,> 100,–,> 100,> 100,> 100,> 100,> 100,> 100,–,–,–,–,–,–,–,–
CC(C)NC(=O)OCc1c(COC(=O)NC(C)C)n(C)c2c1ccc1cc(Cl)c(Cl)cc12,23.5,28,18.8,17.3,28.4,> 100,19.4,–,36.8,30.6,63.3,–,–,–,–,–,–,–,–
Clc1sc(Cl)c2c1[C@H](Br)C[C@@H]2Cl,45.6,> 100,> 100,–,> 100,52.9,87.7,71,44.2,78.2,> 100,–,–,–,–,–,–,–,–
COc1ccc(C(=C2C(=O)OC(=O)C2=C(C)C)c2ccc(OC)cc2)cc1,> 100,> 100,> 100,> 100,> 100,–,> 100,> 100,> 100,> 100,> 100,–,–,–,–,–,–,–,–
CCOC(=O)C(NC(=O)CC)(Nc1ccccc1F)C(F)(F)F (stereo not drawn),> 100,–,> 100,–,> 100,–,> 100,> 100,> 100,> 100,> 100,–,–,–,–,–,–,–,–
O=C1c2cc3c(cc2-c2c1c1cc(F)c(F)cc1c(=O)n2C[C@H](O)CO)OCO3,1.98,0.186,–,–,–,> 100,2.11,7.15,0.468,0.593,0.641,0.0431,0.0225,0.0481,0.0349,0.335,0.28,0.0396,0.143
CN(C)CCN1C(=O)N(CCN(C)C)c2c3cc(O)ccc3nc3c([N+](=O)[O-])ccc1c23,24.7,–,39.2,30.5,44.9,20,33.6,58.5,86.3,29.2,–,–,–,–,–,–,–,–,–
Cn1c(=O)c2[nH]c(Nc3cccc(Cl)c3)nc2n(C)c1=O,> 10,> 10,8.72,–,> 10,> 10,> 10,> 10,–,> 10,> 10,–,–,–,–,–,–,–,–
O=C(O)C12C3C4(C(=O)O)C1C1(C(=O)O)C2C3(C(=O)O)C41 (stereo not drawn),> 100,> 100,> 100,–,> 100,> 100,> 100,> 100,> 100,> 100,–,–,–,–,–,–,–,–,–
COc1ccc2c(c1)-c1nc(=S)n(CCN(C)C)c3ccc([N+](=O)[O-])c(c13)N2,3.07,2.24,12.5,24.1,2.7,–,16.5,2.88,3.61,5.92,18,–,–,–,–,–,–,–,–
O=C(O)CCSc1ncnc2nc[nH]c12,> 100,> 100,> 100,> 100,–,> 100,> 100,> 100,> 100,> 100,> 100,–,–,–,–,–,–,–,–
O=c1ccn([C@@H]2C=C(CO)[C@@H](O)[C@H]2O)c(=O)[nH]1,> 625,> 625,–,> 625,431,> 625,–,> 625,> 625,–,> 625,–,–,–,–,–,–,–,–
CC12CCC(=O)[C@@]1(C)CCCC2=O (stereo partly drawn),> 100,> 100,> 100,> 100,–,> 100,> 100,> 100,> 100,> 100,> 100,–,–,–,–,–,–,–,–
CN(C)C(=O)/N=C1\SC(=Nc2ccccc2)C(=Nc2ccccc2)N1c1ccc([N+](=O)[O-])cc1,–,> 100,> 100,> 100,> 100,> 100,–,> 100,> 100,–,> 100,–,–,–,–,–,–,–,–
CC1=[N+]([O-])C2(CCCC2)N(O)C1(C)C,> 100,> 100,> 100,> 100,–,–,> 100,> 100,> 100,> 100,> 100,–,–,–,–,–,–,–,–
O=C1CN(c2ccccc2)C(=O)C1C(=O)Nc1ccc(Cl)c(Cl)c1 (stereo not drawn),11.9,6.33,–,–,19.2,> 100,18.5,21.4,–,22.7,15.8,–,–,–,–,–,–,–,–
COc1cccc(Nc2nc3c([nH]2)c(=O)n(C)c(=O)n3C)c1,> 10,> 10,> 10,–,> 10,> 10,> 10,> 10,–,> 10,> 10,–,–,–,–,–,–,–,–
